Assay results reported in PMC6401629, “Lipid Nanoparticles-Encapsulated YF4: A Potential Therapeutic Oral Peptide Delivery System for Hypertension Treatment” (Frontiers in Pharmacology, 2019).
Residues, ends and D or L forms follow the SMILES beside them.

Assays:
[1] = Pharmacokinetics after a single gavage administration; format: in vivo; conditions: SD rats, single gavage 1.2 mg/kg, plasma, DAS 2.0, mean ± SD, n = 6
Source text: Six 8-week-old male SD rats with weight between 180 to 220 g were purchased from the Laboratory Animal Center of Sichuan University (Sichuan University, Chengdu, Sichuan, China). The animals were maintained under 12-hour dark and light cycles at 22℃ and free access to food and water. After a week of adaptation, these SD rats were admitted to experiments. Absorption of YF4 in SD rats following a single oral administration of YF4 was investigated. At the end of the experiment, the rats were sacrificed inside an isoflurane chamber to avoid unnecessary suffering. The experiments were approved and supervised by the State Key Laboratory of Biotherapy Animal Care and Use Committee (Sichuan University, Chengdu, Sichuan, China).
SD rats were used to investigate the […] of YF4. Rats were chosed randomly for oral administration of free YF4 at the dose of 1.2 mg/kg (n=6), respectively. Before the experiment, all rats were fasted for 12 h with free access to water. Each rat was administered an oral volume of 0.5 mL/100 g. Approximate 200 μL of blood samples were collected from the orbit into a heparin zed centrifuge tube before and at 0.083, 0.25, 0.5, 0.75, 1, 1.5, 2, 3, 4, 6, 8, 12 h post-dosing. All blood samples were centrifuged at 3500 rpm (4 ℃) for 10 min. The plasma samples were collected and stored at -20 ℃ until analyzed by Drug and Statistics 2.0 (DAS 2.0) (Mathematical Pharmacology Professional Committee of China, Shanghai, China).

[2] = test system: spontaneously hypertensive rats (SHRs); test: In vivo antihypertensive efficacy, tail-cuff blood pressure; set-up: species or system rat; conditions: single oral dose 5 mg/kg, 2 h after administration, n = 6
Source text: Twelve weeks old male spontaneously hypertensive rats (SHRs) with a circa weight between 250 and 320 g were purchased from Beijing Vital River Laboratory Animal Technology Co., Ltd. After a week of adaption, animals were admitted to experiments (six per group). […] The rats were free access to food and water. […] In this study, groups of rats were used for the oral administration of saline group, Captopril group vs. YF4 group, YF4 vs. YF4-NPs vs YF4-LNPs.
Simultaneously, the captopril and the saline water were used as the positive control and control group, respectively. SHRs were randomly divided into three groups (n = 6). Control group were treated with 0.9% saline water, and the other groups were treated with captopril (5 mg/kg) or the same dose of YF4 dissolved in saline water. All rats were administered at a single oral dose.
In YF4-LNPs pharmacodynamics study, the SHRs were randomly divided into three groups (n = 6). Control group were treated with 0.9% saline water, the other groups of SHRs were treated withYF4 and YF4-LNPs. All the groups of rats were given the same dose at 0.8 mg/kg body weight. Blood pressure was indirectly recorded as described above. […] All the SBP were measured for three times to get the average value at each time point.

Row | SMILES | Cmax [1] [ng/mL] | AUC(0-inf) ([1]; male, rat, po) [ng·h/mL] | CL/F ([1]; male, rat, po, read-out: CLz/F (converted)) [mL/min/kg] | MRT ([1]; male, rat, po, read-out: MRT(0-t)) [h] | half-life ([1]; male, rat, po, read-out: T1/2z (half-life) (converted)) [h] | blood pressure lowing (BPL) effect compared with saline group [2] [mmHg]
1 | CC(C)C[C@H](NC(=O)CNC(=O)[C@@H](N)Cc1ccc(O)cc1)C(=O)N[C@@H](Cc1ccccc1)C(=O)O [YF4, Tyr-Gly-Leu-Phe] (H-YGLF-OH) | 15470 ± 3050 | 45400 ± 9420 | 0.333 | 3.17 ± 0.68 | 2.91 ± 0.05 | 
2 | C[C@H](CS)C(=O)N1CCC[C@H]1C(=O)O [captopril] |  |  |  |  |  | 23.0
